# Results taken from the supplement of paper PMC10702517.
# ± gives the standard deviation.
# How the values were obtained:
# [1] = chemical recovery from spiked human plasma; higher = better extraction; conditions: pooled human plasma
# [2] = chemical recovery into PDMS from spiked human plasma; higher = better extraction; conditions: pooled human plasma, extraction method: PES with PDMS
# [3] = chemical recovery by SPE of plasma after PDMS sampling; higher = better extraction; conditions: pooled human plasma, extraction method: HLB SPE of plasma after PES
# [4] = extraction method: SPE only (HLB 96-well), PES comparison experiment
# [5] = extraction method: SPE only (HLB 96-well)
# [6] = extraction method: solvent precipitation (ACN + hexane)
# [7] = extraction method: PES+SPE (3 d PDMS equilibration then HLB SPE)
# 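For chemical recovery by SPE of plasma after PDMS sampling in this document: over 400 spiked chemicals quantified by LC-HRMS or GC-HRMS via internal standard calibration, recovery relative to spike mix added to unspiked plasma extract to correct matrix effects.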
SMILES,"chemical recovery [1, 4] [%]",chemical recovery into PDMS ([2]; equilibration time (d): 1) [%],chemical recovery into PDMS ([2]; equilibration time (d): 3) [%],chemical recovery into PDMS ([2]; equilibration time (d): 6) [%],chemical recovery by SPE of plasma ([3]; equilibration time (d): 1) [%],"chemical recovery [1, 5] [%]","chemical recovery [1, 6] [%]",chemical recovery by SPE of plasma ([3]; equilibration time (d): 3) [%],chemical recovery by SPE of plasma ([3]; equilibration time (d): 6) [%],"chemical recovery [1, 7] [%]"
CC(C)(C)c1ccc(C(=O)CCCN2CCC(OC(c3ccccc3)c3ccccc3)CC2)cc1 [Ebastin],36.2 ± 9,0.444 ± 0.073,0.712 ± 0.075,0.469 ± 0.24,0.574 ± 0.23,–,–,–,–,–
O=C1Nc2ccc(Cl)cc2C(C#CC2CC2)(C(F)(F)F)O1 (centres undefined) [Efavirenz],38.7 ± 7.3,44.7 ± 4.4,46.6 ± 4.5,47.4 ± 0.83,4.94 ± 4.3,27.1 ± 5.3,41.4 ± 3.2,6.96 ± 1.3,1.44 ± 2.5,–
CC[C@H](C)[C@H]1O[C@]2(C=C[C@@H]1C)C[C@@H]1C[C@@H](C/C=C(\C)[C@@H](O[C@H]3C[C@H](OC)[C@@H](O[C@H]4C[C@H](OC)[C@@H](NC)[C@H](C)O4)[C@H](C)O3)[C@@H](C)/C=C/C=C3\CO[C@@H]4[C@H](O)C(C)=C[C@@H](C(=O)O1)[C@]34O)O2 [Emamectin B1a],29.7 ± 9.1,0.154 ± 0.044,0.139 ± 0.047,0.0633 ± 0.056,9.54 ± 2.3,–,69 ± 6.4,9.04 ± 3,8.2 ± 4.6,–
CCOC1Oc2ccc(OS(C)(=O)=O)cc2C1(C)C (centres undefined) [Ethofumesate],52.8 ± 9.5,40.5 ± 3.4,42.3 ± 2.6,44 ± 0.63,0.62 ± 1.1,48.8 ± 1.2,–,1.94 ± 1.7,0.896 ± 1.6,43.9 ± 5.2
CCOC(=O)c1ccc(N(C)C)cc1 [Ethyl 4-(dimethylamino)benzoate],37.5 ± 6.9,26 ± 6,27.7 ± 4.9,29.8 ± 3.4,1.27 ± 0.14,38.6 ± 1.8,60.4 ± 5.1,1.79 ± 0.23,1.11 ± 0.13,25.6 ± 9.8
CCOP(=S)(OCC)SCn1nnc2ccccc2c1=O [Ethyl azinphos],46.3 ± 6,39.8 ± 4.6,41.4 ± 0.64,42.5 ± 2.1,2.46 ± 0.6,–,69.5 ± 2.2,2.42 ± 0.18,1.19 ± 0.21,–
S=C1NCCN1 [Ethylenethiourea],–,–,–,0.013 ± 0.022,–,0.261 ± 0.34,–,0.0882 ± 0.15,0.15 ± 0.26,0.046 ± 0.019
CC(Cc1ccc(C(C)(C)C)cc1)CN1CCCCC1 (centres undefined) [Fenpropidin],44.5 ± 7.7,–,0.0302 ± 0.026,–,0.126 ± 0.086,–,105 ± 9.7,0.0736 ± 0.023,0.0409 ± 0.011,–
CC(Cc1ccc(C(C)(C)C)cc1)CN1C[C@@H](C)O[C@@H](C)C1 (some centres undefined) [Fenpropimorph],43.4 ± 8,0.0443 ± 0.064,0.0146 ± 0.013,0.0427 ± 0.056,0.124 ± 0.08,–,80.2 ± 11,0.066 ± 0.064,0.0142 ± 0.017,–
CC(C)(C)NC(=O)[C@H]1CC[C@H]2[C@@H]3CC[C@H]4NC(=O)C=C[C@]4(C)[C@H]3CC[C@]12C [Finasteride],47.9 ± 6.3,32.6 ± 3,37.9 ± 1.4,38.5 ± 0.91,9.28 ± 1.5,–,–,5.81 ± 1.2,3.05 ± 0.42,–
N#Cc1nn(-c2c(Cl)cc(C(F)(F)F)cc2Cl)c(N)c1C(F)(F)F [Fipronil desulfinyl],67.3 ± 7.3,33.7 ± 0.57,36.3 ± 2.9,34.8 ± 0.66,17.6 ± 2.5,30.2 ± 6.1,53.7 ± 4.2,18 ± 1.9,13.8 ± 0.85,–
N#Cc1nn(-c2c(Cl)cc(C(F)(F)F)cc2Cl)c(N)c1SC(F)(F)F [Fipronil sulfide],64 ± 7,22.6 ± 0.34,25.1 ± 1.1,24.4 ± 0.83,21.2 ± 6.2,30.6 ± 3.4,49.8 ± 3.9,19.9 ± 0.92,15.3 ± 3,–
N#Cc1nn(-c2c(Cl)cc(C(F)(F)F)cc2Cl)c(N)c1S(=O)(=O)C(F)(F)F [Fipronil sulfone],67.9 ± 8.3,27.8 ± 0.78,32.2 ± 2.1,31 ± 0.79,41.6 ± 14,36.7 ± 3.6,67.4 ± 7.9,34.1 ± 7.7,30.8 ± 9.5,–
N#Cc1nn(-c2c(Cl)cc(C(F)(F)F)cc2Cl)c(N)c1[S+]([O-])C(F)(F)F (centres undefined) [Fipronil],64.5 ± 6.8,25.5 ± 0.91,30.2 ± 2.3,29 ± 0.92,19 ± 4.9,31.6 ± 8.2,40.3 ± 3.4,21.5 ± 4.3,15.4 ± 2.5,–
OC(Cn1cncn1)(Cn1cncn1)c1ccc(F)cc1F [Fluconazole],47 ± 6.6,2.22 ± 0.25,4.26 ± 1.1,4.9 ± 1,42.2 ± 4.3,–,77.1 ± 3.1,42.2 ± 4.8,36.6 ± 3.1,43.8 ± 3.3
CC(C)N(C(=O)COc1nnc(C(F)(F)F)s1)c1ccc(F)cc1 [Flufenacet],52.3 ± 7.7,50 ± 1.1,54.1 ± 4.8,51.2 ± 6,0.558 ± 0.061,–,62.5 ± 3.1,0.583 ± 0.14,0.269 ± 0.043,–
CC1CCc2cc(F)cc3c(=O)c(C(=O)O)cn1c23 (centres undefined) [Flumequine],49.8 ± 7.5,0.511 ± 0.092,2.26 ± 0.88,2.3 ± 1.2,43.1 ± 2.7,44.8 ± 8,72.1 ± 3.2,43.8 ± 3.9,40.3 ± 3.2,44.1 ± 3.4
CC1(C)O[C@@H]2C[C@H]3[C@@H]4C[C@H](F)C5=CC(=O)C=C[C@]5(C)[C@H]4[C@@H](O)C[C@]3(C)[C@]2(C(=O)CO)O1 [Flunisolide],46.9 ± 5.2,5.95 ± 0.6,10.2 ± 1.6,11.7 ± 2,39.7 ± 3.9,–,–,37.1 ± 2.1,27.6 ± 2.4,–
c1ccc2c(c1)-c1cccc3cccc-2c13 [Fluoranthene],–,–,106 ± 24,–,–,6.27 ± 1.4,69 ± 3.7,–,3.75 ± 6.5,79.1 ± 25
CC(=O)[C@@]1(O)CC[C@H]2[C@@H]3C[C@H](C)C4=CC(=O)C=C[C@]4(C)[C@@]3(F)[C@@H](O)C[C@@]21C [Fluorometholone],50.4 ± 7.2,1.66 ± 0.4,3.75 ± 0.69,4.15 ± 0.95,45.1 ± 3.6,–,–,48.3 ± 3.2,40.3 ± 1.6,–
CNC1=C(c2cccc(C(F)(F)F)c2)C(=O)C(c2ccccc2)O1 (centres undefined) [Flurtamone],49.3 ± 7.7,1.85 ± 0.36,4.2 ± 2,5.43 ± 2.8,15.5 ± 2.1,51.2 ± 0.52,80.8 ± 2.4,11 ± 1.4,6.82 ± 0.47,32.8 ± 7.2
C[Si](Cn1cncn1)(c1ccc(F)cc1)c1ccc(F)cc1 [Flusilazole],48 ± 7.1,41.3 ± 2.2,45.7 ± 3.8,43.1 ± 5.8,0.32 ± 0.12,39.4 ± 2.9,70.1 ± 5.4,0.383 ± 0.15,0.136 ± 0.0093,45.1 ± 4.8
CC(C)C(=O)Nc1ccc([N+](=O)[O-])c(C(F)(F)F)c1 [Flutamide],67.8 ± 5.2,32.4 ± 1.4,36.2 ± 3.1,36.7 ± 1.6,21.7 ± 2.7,–,–,22.2 ± 0.83,15.5 ± 1.1,–
CCC(=O)O[C@]1(C(=O)SCF)[C@H](C)C[C@H]2[C@@H]3C[C@H](F)C4=CC(=O)C=C[C@]4(C)[C@@]3(F)[C@@H](O)C[C@@]21C [Fluticasone propionate],41.1 ± 5.8,32.3 ± 3,39.3 ± 3.7,41.3 ± 2.3,–,–,–,4.78 ± 8.3,–,–
